Assay results taken from patent US9029092B2, “Solution phase homogeneous assays” (Beckman Coulter, Inc., priority 2009, dated 2015).

Key:
[1] = test system: PSA; assay: Screening SSIA by homogeneous PSA immunoassay (anti-PSA-AK1 + anti-PSA-HRP); type: biochemical, human
Procedure: This example presents one method used for testing of candidate compounds for functionality as SSIA in assays of the present disclosure. Testing was conducted in a model screening immunoassay of the protein PSA. Tests were run using a 96-well microtiter plate format. A solution containing 30 μL of mouse anti-PSA-AK1 (66 ng), 30 μL of mouse anti-PSA-HRP conjugate (7.8 ng), 36 μL of human female serum, and 24 μL of PSA calibrator were pipetted into each well. The plate was incubated at 37° C. for 10 minutes. A 5 μL aliquot of the test compound (various concentrations) was added to each well. Chemiluminescence was triggered by the addition of 100 μL of a solution of a trigger solution whose composition is listed below. The chemiluminescent flash was integrated for 5 seconds after the addition of the trigger solution using a Luminoskan Asent® plate luminometer, (Thermo Fischer Scientific, Inc., Waltham, Mass.).
It is desirable that the improvement factor be at least 2 (S5/S0≧ about 20-30) and more desirable that improvement factor be at least 5 (S5/S0≧ about 50), yet more desirable that S5/S0 be ≧100 in the present screen.

[2] = test system: biotinylated HRP; assay: Model system for selection of SSIA (AK1/streptavidin BSA microparticles + biotinylated HRP); type: biochemical, horseradish; details: SSIA 100 μM final; for light intensity, BTN-HRP0: Btn-HRP 0 ng/mL; for light intensity, BTN-HRP0 / light intensity, BTN-HRP1 / light intensity, BTN-HRP10 / light intensity, BTN-HRP100 / light intensity, BTN-HRP250: total HRP 500 ng/mL; for S1/S0: Btn-HRP 1 ng/mL vs 0; for light intensity, BTN-HRP1: Btn-HRP 1 ng/mL; for S2/S0: Btn-HRP 10 ng/mL vs 0; for light intensity, BTN-HRP10: Btn-HRP 10 ng/mL; for S3/S0: Btn-HRP 100 ng/mL vs 0; for light intensity, BTN-HRP100: Btn-HRP 100 ng/mL; for S4/S0: Btn-HRP 250 ng/mL vs 0; for light intensity, BTN-HRP250: Btn-HRP 250 ng/mL
Procedure: The model system uses a microparticle conjugated to BSA (bovine serum albumin) labeled with a […] and acridan ketenedithioacetal chemiluminescent label (AK1) as the chemiluminescent-labeled sbp, and biotinylated HRP as the activator-labeled specific binding pair. In the model system, varying amounts of Btn-HRP is added to the chemiluminescent-labeled specific binding pair at 0, 1, 10, 100 and 250 ng/mL. Additional unlabeled HRP is added to reach a total HRP of concentration of 500 ng/mL in each reaction mixture. The unlabeled HRP in combination with the activator-labeled sbp was provided to the chemiluminescent-labeled sbp microparticles to emulate sample. A compound for assessment as an SSIA was also added. This reaction mixture of the model system is then triggered by addition of trigger solution in a manner of assays of the present disclosure.
To prepare the chemiluminescent-labeled sbp on microparticles, Bovine Serum Albumin (BSA) was biotinylated with 4× molar excess of biotin-LC-sulfoNHS (Pierce Biotechnology Inc., Rockford, Ill., USA). Unbound reactants were removed via desalting or dialysis. The biotin-BSA was then reacted with a 5× molar excess of an NHS ester of acridan ketenedithioacetal AK1 in 20 mM sodium phosphate pH 7.2: DMSO 75:25, v/v) followed by desalting in the same buffer. The dual labeled (biotin and AK1) BSA was then coupled with tosyl activated M280 microparticles (Invitrogen Corporation, Carlsbad, Calif., USA) in a 0.1M borate buffer pH 9.5 at a concentration of about 20 μg of labeled BSA per mg of microparticles for 16-24 h at 40° C. After coupling the microparticles were stripped for 1 h at 40° C. with 0.2 M TRIS base, 2% SDS, pH˜11. The stripping process was repeated one additional time. Microparticles were then suspended in a 0.1% BSA/TRIS buffered saline (BSA/TBS) buffer and streptavidin (SA) was added at approximately 15 μg SA per mg microparticles. Streptavidin was mixed with the microparticles for 45-50 min at room temperature. The microparticles were then washed three times and suspended in the same BSA/TBS.
HRP, (Roche Diagnostics, Indianapolis, Ind., USA) was biotinylated with 4× molar excess of biotin-LC-sulfoNHS (Pierce Biotechnology Inc., Rockford, Ill., USA). Alternatively, 25× molar excess of biotin-PEO4-NHS may be used. Unbound reactants were removed via desalting or dialysis.
Each SSIA compound for assessment was solubilized in Buffer II at a concentration at least 10× of the working strength concentration.
25 μl of 1 mg/ml of dual-labeled (biotin and AK1) BSA M280 particles were mixed with 45 μl of working concentration SSIA in Buffer II. The assay volume brought to 85 μl by adding 15 μl of Buffer II. 15 μl of sample containing Btn-HRP:HRP at different ratios (The amount of biotinylated-HRP varied from 0, 1, 10, 100 and 250 ng/mL) was added. The reaction mixture was incubated for 30 min at 37° C., then 100 μL of trigger solution was added and the light intensity recorded. Total volume of reaction mixture, including trigger solution was 200 μL with a final concentration of 100 μM of SSIA.
The screening tests were performed using a modified DxI® Immunoassay System (Beckman Coulter, Inc. Brea, Calif.) as described above.

[3] = test system: TnI; assay: Assays utilizing various SSIA in TnI assay; type: biochemical; details: for Signal/Noise S1/S0: calibrator S1; for Signal/Noise S2/S0: calibrator S2; for Signal/Noise S3/S0: calibrator S3; for Signal/Noise S4/S0: calibrator S4; for Signal/Noise S5/S0: calibrator S5; for Signal/Noise S6/S0: calibrator S6
Procedure: In a reaction tube, 400 uL of TnI M6 antibody-HRP conjugate at 0.5 ug/mL in buffered aqueous solution at pH. 8.0 (100 mM Tris, 150 mM NaCl, 0.1 mM EDTA, 0.2% Tween-20 and 1% BSA), 400 uL of AK1˜Dex70/31˜Streptavidin (fraction 1) 2:1 SA/Ab at 2 ug/mL Ab also in buffered aqueous solution at pH 8.0, and 400 uL of calibrator standard solution containing the TnI analyte at a known concentration. One tube was prepared for each calibrator concentration. […] Next, 25 uL of each antioxidant as a concentrated solution of 2 mM, 1 mM or 0.5 mM was pipetted into the plate wells using a repeater pipette. The plates were rotated for 10 seconds to mix and incubated between 5 to 33 minutes. Detection was performed with a SpectraMax L injection plate luminometer.

[4] = test compound final conc. […] ([…]), S5 = 129 ng PSA/mL vs zero PSA
[5] = SSIA final concentration 125 uM
[6] = SSIA final concentration 250 uM
[7] = SSIA final concentration 500 uM

SMILES	S5/S0 [1, 4]	light intensity, BTN-HRP0 [2]	S1/S0 [2]	light intensity, BTN-HRP1 [2]	S2/S0 [2]	light intensity, BTN-HRP10 [2]	S3/S0 [2]	light intensity, BTN-HRP100 [2]	S4/S0 [2]	light intensity, BTN-HRP250 [2]	effectiveness as SSIA in the model system [2]	Signal/Noise S1/S0 [3, 5]	Signal/Noise S1/S0 [3, 6]	Signal/Noise S1/S0 [3, 7]	Signal/Noise S2/S0 [3, 5]	Signal/Noise S2/S0 [3, 6]	Signal/Noise S2/S0 [3, 7]	Signal/Noise S3/S0 [3, 5]	Signal/Noise S3/S0 [3, 6]	Signal/Noise S3/S0 [3, 7]	also measured
Nc1ccccc1B(O)O	108	–	–	–	–	–	–	–	–	–	–	–	–	–	–	–	–	–	–	–	–
O=C1C(O)=C(O)C(=O)C(O)=C1O	–	–	–	–	–	–	–	–	–	–	–	–	–	–	–	–	–	–	–	–	S5/S0 ([1]; test compound final conc. 0.061 mM (61 uM)): 51
Cc1c(C)c2c(c(C)c1O)CCC(C)(C(=O)O)O2 (centres unmarked) [Trolox ®]	–	173	8.4	1,460	215.1	37,291	41832.7	7,251,008	62274.5	10,794,247	demonstrating utility as SSIA	1.6	2.0	1.7	3.3	3.5	2.6	11.5	12.8	11.3	Signal/Noise S4/S0 [3, 5]: 44.4; Signal/Noise S4/S0 [3, 6]: 45.8; Signal/Noise S4/S0 [3, 7]: 31.1; Signal/Noise S5/S0 [3, 5]: 302.0; Signal/Noise S5/S0 [3, 6]: 295.1; Signal/Noise S5/S0 [3, 7]: 192.0; Signal/Noise S6/S0 [3, 5]: 2713.1; Signal/Noise S6/S0 [3, 6]: 2334.5; Signal/Noise S6/S0 [3, 7]: 1181.7
C=CCc1ccc(O)c(OC)c1	–	–	–	–	–	–	–	–	–	–	–	–	–	–	–	–	–	–	–	–	S5/S0 ([1]; test compound final conc. 0.244 mM (244 uM)): 30
COc1cc(C(C)(C)C)c(O)c(C(C)(C)C)c1	19	–	–	–	–	–	–	–	–	–	–	–	–	–	–	–	–	–	–	–	–
O=C(O)c1ccc(O)c(O)c1	178	–	–	–	–	–	–	–	–	–	–	–	–	–	–	–	–	–	–	–	–
Nc1ccccc1O [2-amino phenol, 2-aminophenol]	–	65	5.5	356	132.8	8,632	32195.4	2,092,703	61672.1	4,008,689	demonstrating utility as SSIA	1.4	0.9	1.3	2.3	1.7	1.8	7.6	4.5	4.8	Signal/Noise S4/S0 [3, 5]: 27.2; Signal/Noise S4/S0 [3, 6]: 15.4; Signal/Noise S4/S0 [3, 7]: 10.8; Signal/Noise S5/S0 [3, 5]: 183.7; Signal/Noise S5/S0 [3, 6]: 101.7; Signal/Noise S5/S0 [3, 7]: 52.5; Signal/Noise S6/S0 [3, 5]: 1604.7; Signal/Noise S6/S0 [3, 6]: 739.1; Signal/Noise S6/S0 [3, 7]: 329.9
Nc1cc(C[C@H](N)C(=O)O)ccc1O [3-Amino Tyrosine]	–	–	–	–	–	–	–	–	–	–	–	1.5	1.7	1.1	2.8	2.7	1.9	9.0	8.1	5.9	Signal/Noise S4/S0 [3, 5]: 32.2; Signal/Noise S4/S0 [3, 6]: 31.1; Signal/Noise S4/S0 [3, 7]: 19.8; Signal/Noise S5/S0 [3, 5]: 234.8; Signal/Noise S5/S0 [3, 6]: 217.9; Signal/Noise S5/S0 [3, 7]: 118.6; Signal/Noise S6/S0 [3, 5]: 2268.7; Signal/Noise S6/S0 [3, 6]: 1772.4; Signal/Noise S6/S0 [3, 7]: 766.3
Oc1ccc(Cl)cc1O [4-chloro catechol, 4-chlorocatechol]	–	93	2.2	205	14.8	1,373	4910.8	456,707	13558.5	1,260,937	demonstrating utility as SSIA	–	–	–	–	–	–	–	–	–	–
